Source: patent US12577206B2 (BRISTOL-MYERS SQUIBB COMPANY, priority 2020, dated 2026)

Experiments:
[1] = target: T1, human FPR2 (Homo sapiens, UniProt P25090); experiment: FPR2 cyclic adenosine monophosphate (cAMP) assay; format: cell-based; details: CHO cells overexpressing human FPR2; forskolin 5 μM; inhibition of cAMP production; HTRF; read-out: hFPR2 cAMP2 EC50
T1 sequence (P25090 1-351): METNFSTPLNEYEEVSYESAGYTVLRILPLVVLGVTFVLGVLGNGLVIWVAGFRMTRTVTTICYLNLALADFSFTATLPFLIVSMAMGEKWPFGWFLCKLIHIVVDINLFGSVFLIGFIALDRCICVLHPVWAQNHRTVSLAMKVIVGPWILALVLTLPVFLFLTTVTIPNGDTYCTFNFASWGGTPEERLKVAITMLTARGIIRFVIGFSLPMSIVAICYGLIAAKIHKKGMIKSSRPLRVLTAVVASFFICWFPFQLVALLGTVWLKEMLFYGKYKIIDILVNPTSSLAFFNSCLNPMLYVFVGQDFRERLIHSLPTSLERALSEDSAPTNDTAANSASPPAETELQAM
Summary of the method: (§1)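 CHO/hFPR1 4,000 cells/well, forskolin 10 μM final; CHO/hFPR2 2,000 cells/well, forskolin 5 μM final. IBMX 200 μM, DMSO 1%, DPBS + Ca/Mg + 0.1% BSA, 30 min rt. HTRF cAMP; 4-PL fit.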

[2] = target: T2, human FPR1 (Homo sapiens, UniProt P21462); experiment: FPR1 cyclic adenosine monophosphate (cAMP) assay; format: cell-based; details: CHO cells overexpressing human FPR1; forskolin 10 μM; inhibition of cAMP production; HTRF; read-out: hFPR1 cAMP2 EC50
T2 sequence (P21462 1-350): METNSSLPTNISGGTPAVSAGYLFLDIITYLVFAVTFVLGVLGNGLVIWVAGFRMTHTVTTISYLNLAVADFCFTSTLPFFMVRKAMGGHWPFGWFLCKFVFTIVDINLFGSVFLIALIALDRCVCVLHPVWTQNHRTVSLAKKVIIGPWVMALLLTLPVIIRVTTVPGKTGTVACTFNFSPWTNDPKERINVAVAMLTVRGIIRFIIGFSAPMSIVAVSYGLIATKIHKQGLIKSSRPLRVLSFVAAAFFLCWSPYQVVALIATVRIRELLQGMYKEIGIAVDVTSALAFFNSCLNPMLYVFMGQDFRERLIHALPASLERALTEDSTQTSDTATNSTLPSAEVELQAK
Summary of the method: as §1

SMILES | EC50 [1] | EC50 [2]
COc1cccc(-n2c(=O)c(NC(=O)c3ccc(OC(F)F)cc3)c(-c3c(F)cc(OC)cc3F)n2C)c1 [Example 112, N-[5-(2,6-difluoro-4-methoxyphenyl)-2-(3-methoxyphenyl)-1-methyl-3-oxo-2,3-dihydro-1H-pyrazol-4-yl]-4-(difluoromethoxy)benzamide] | 0.005 µM | 0.003 µM
COC(=O)c1cccc(-n2c(=O)c(NC(=O)c3ccc(OC(F)F)cc3)c(-c3c(F)cc(OC)cc3F)n2C)c1 [Example 113, methyl 3-[3-(2,6-difluoro-4-methoxyphenyl)-4-[4-(difluoromethoxy)benzamido]-2-methyl-5-oxo-2,5-dihydro-1H-pyrazol-1-yl]benzoate] | 0.002 µM | 0.002 µM
COc1cc(F)c(-c2c(NC(=O)c3ccc(OC(F)F)cc3)c(=O)n(-c3ccnc(OC)c3)n2C)c(F)c1 [Example 115, N-[5-(2,6-difluoro-4-methoxyphenyl)-2-(2-methoxypyridin-4-yl)-1-methyl-3-oxo-2,3-dihydro-1H-pyrazol-4-yl]-4-(difluoromethoxy)benzamide] | 0.005 µM | 0.28 µM
COc1cc(F)c(-c2c(NC(=O)c3ccc(OC(F)F)cc3)c(=O)n(-c3ccnc(Cl)c3)n2C)c(F)c1 [Example 116, N-[2-(2-chloropyridin-4-yl)-5-(2,6-difluoro-4-methoxyphenyl)-1-methyl-3-oxo-2,3-dihydro-1H-pyrazol-4-yl]-4-(difluoromethoxy)benzamide] | 0.021 µM | 2 µM
COc1cc(-n2c(=O)c(NC(=O)c3ccc(OC(F)F)cc3)c(-c3c(F)cc(OC)cc3F)n2C)cc(C(F)(F)F)c1 [Example 117, N-[5-(2,6-difluoro-4-methoxyphenyl)-2-[3-methoxy-5-(trifluoromethyl)phenyl]-1-methyl-3-oxo-2,3-dihydro-1H-pyrazol-4-yl]-4-(difluoromethoxy)benzamide] | 0.008 µM | > 10 µM
CCOc1cccc(-n2c(=O)c(NC(=O)c3ccc(OC(F)F)cc3)c(-c3c(F)cc(OC)cc3F)n2C)c1 [Example 118, N-[5-(2,6-difluoro-4-methoxyphenyl)-2-(3-ethoxyphenyl)-1-methyl-3-oxo-2,3-dihydro-1H-pyrazol-4-yl]-4-(difluoromethoxy)benzamide] | 0.006 µM | 0.003 µM
COc1cc(F)c(-c2c(NC(=O)c3ccc(OC(F)F)cc3)c(=O)n(-c3cc(C#N)cc(C(C)C)c3)n2C)c(F)c1 [Example 119, N-{2-[3-cyano-5-(propan-2-yl)phenyl]-5-(2,6-difluoro-4-methoxyphenyl)-1-methyl-3-oxo-2,3-dihydro-1H-pyrazol-4-yl}-4-(difluoromethoxy)benzamide] | 0.008 µM | 0.065 µM
COC(=O)c1cc(Cl)cc(-n2c(=O)c(NC(=O)c3ccc(OC(F)F)cc3)c(-c3c(F)cc(OC)cc3F)n2C)c1 [Example 120, methyl 3-chloro-5-[3-(2,6-difluoro-4-methoxyphenyl)-4-[4-(difluoromethoxy)benzamido]-2-methyl-5-oxo-2,5-dihydro-1H-pyrazol-1-yl]benzoate] | 0.004 µM | 6 µM
COc1cc(C)cc(-n2c(=O)c(NC(=O)c3ccc(OC(F)F)cc3)c(-c3c(F)cc(OC)cc3F)n2C)c1 [Example 121, N-[5-(2,6-difluoro-4-methoxyphenyl)-2-(3-methoxy-5-methylphenyl)-1-methyl-3-oxo-2,3-dihydro-1H-pyrazol-4-yl]-4-(difluoromethoxy)benzamide] | 0.006 µM | > 10 µM
CCOc1cc(-n2c(=O)c(NC(=O)c3ccc(OC(F)F)cc3)c(-c3c(F)cc(OC)cc3F)n2C)cc(C(F)(F)F)c1 [Example 122, N-[5-(2,6-difluoro-4-methoxyphenyl)-2-[3-ethoxy-5-(trifluoromethyl)phenyl]-1-methyl-3-oxo-2,3-dihydro-1H-pyrazol-4-yl]-4-(difluoromethoxy)benzamide] | 0.021 µM | > 10 µM
COc1cc(F)c(-c2c(NC(=O)c3ccc(OC(F)F)cc3)c(=O)n(-c3cc(Cl)cc(OC(F)(F)F)c3)n2C)c(F)c1 [Example 123, N-{2-[3-chloro-5-(trifluoromethoxy)phenyl]-5-(2,6-difluoro-4-methoxyphenyl)-1-methyl-3-oxo-2,3-dihydro-1H-pyrazol-4-yl}-4-(difluoromethoxy)benzamide] | 0.019 µM | > 10 µM
COc1cc(Cl)cc(-n2c(=O)c(NC(=O)c3ccc(OC(F)F)cc3)c(-c3c(F)cc(OC)cc3F)n2C)c1 [Example 124, N-[2-(3-chloro-5-methoxyphenyl)-5-(2,6-difluoro-4-methoxyphenyl)-1-methyl-3-oxo-2,3-dihydro-1H-pyrazol-4-yl]-4-(difluoromethoxy)benzamide] | 0.004 µM | > 10 µM
COc1cc(F)c(-c2c(NC(=O)c3ccc(OC(F)F)cc3)c(=O)n(-c3cc(F)cc(OC(C)C)c3)n2C)c(F)c1 [Example 125, N-[5-(2,6-difluoro-4-methoxyphenyl)-2-[3-fluoro-5-(propan-2-yloxy)phenyl]-1-methyl-3-oxo-2,3-dihydro-1H-pyrazol-4-yl]-4-(difluoromethoxy)benzamide] | 0.004 µM | 2 µM
COc1cc(F)c(-c2c(NC(=O)c3ccc(OC(F)F)cc3)c(=O)n(-c3cc(Cl)cc(C(=O)N(C)C)c3)n2C)c(F)c1 [Example 126, 3-chloro-5-[3-(2,6-difluoro-4-methoxyphenyl)-4-[4-(difluoromethoxy)benzamido]-2-methyl-5-oxo-2,5-dihydro-1H-pyrazol-1-yl]-N,N-dimethylbenzamide] | 0.009 µM | 1.2 µM
COc1cc(F)c(-c2c(NC(=O)c3ccc(OC(F)F)cc3)c(=O)n(-c3cc(Cl)cc(Cl)c3)n2C)c(F)c1 [Example 127, N-[2-(3,5-dichlorophenyl)-5-(2,6-difluoro-4-methoxyphenyl)-1-methyl-3-oxo-2,3-dihydro-1H-pyrazol-4-yl]-4-(difluoromethoxy)benzamide] | 0.008 µM | > 10 µM
COC(=O)c1cncc(-n2c(=O)c(NC(=O)c3ccc(OC(F)F)cc3)c(-c3c(F)cc(OC)cc3F)n2C)c1 [Example 128, methyl 5-[3-(2,6-difluoro-4-methoxyphenyl)-4-[4-(difluoromethoxy)benzamido]-2-methyl-5-oxo-2,3-dihydro-1H-pyrazol-1-yl]pyridine-3-carboxylate] | 0.007 µM | 0.019 µM
COc1cncc(-n2c(=O)c(NC(=O)c3ccc(OC(F)F)cc3)c(-c3c(F)cc(OC)cc3F)n2C)c1 [Example 129, N-[5-(2,6-difluoro-4-methoxyphenyl)-2-(5-methoxypyridin-3-yl)-1-methyl-3-oxo-2,3-dihydro-1H-pyrazol-4-yl]-4-(difluoromethoxy)benzamide] | 0.024 µM | 2.2 µM
COc1cc(F)c(-c2c(NC(=O)c3ccc(OC(F)F)cc3)c(=O)n(-c3cncc(Cl)c3)n2C)c(F)c1 [Example 130, N-[2-(5-chloropyridin-3-yl)-5-(2,6-difluoro-4-methoxyphenyl)-1-methyl-3-oxo-2,3-dihydro-1H-pyrazol-4-yl]-4-(difluoromethoxy)benzamide] | 0.02 µM | 1.9 µM
COc1cc(F)c(-c2c(NC(=O)c3ccc(OC(F)F)cc3)c(=O)n(-c3cc(Cl)cc(C(F)(F)F)c3)n2C)c(F)c1 [Example 131, N-{2-[3-chloro-5-(trifluoromethyl)phenyl]-5-(2,6-difluoro-4-methoxyphenyl)-1-methyl-3-oxo-2,3-dihydro-1H-pyrazol-4-yl}-4-(difluoromethoxy)benzamide] | 0.011 µM | > 10 µM
COc1cc(F)cc(-n2c(=O)c(NC(=O)c3ccc(OC(F)F)cc3)c(-c3c(F)cc(OC)cc3F)n2C)c1 [Example 132, N-[5-(2,6-difluoro-4-methoxyphenyl)-2-(3-fluoro-5-methoxyphenyl)-1-methyl-3-oxo-2,3-dihydro-1H-pyrazol-4-yl]-4-(difluoromethoxy)benzamide] | 0.006 µM | 0.083 µM
CCOC(=O)c1cc(F)cc(-n2c(=O)c(NC(=O)c3ccc(OC(F)F)cc3)c(-c3c(F)cc(OC)cc3F)n2C)c1 [Example 133, ethyl 3-[3-(2,6-difluoro-4-methoxyphenyl)-4-[4-(difluoromethoxy)benzamido]-2-methyl-5-oxo-2,5-dihydro-1H-pyrazol-1-yl]-5-fluorobenzoate] | 0.003 µM | 0.55 µM
COc1cc(F)c(-c2c(NC(=O)c3ccc(OC(F)F)cc3)c(=O)n(-c3cc(C)cc(Cl)c3)n2C)c(F)c1 [Example 134, N-[2-(3-chloro-5-methylphenyl)-5-(2,6-difluoro-4-methoxyphenyl)-1-methyl-3-oxo-2,3-dihydro-1H-pyrazol-4-yl]-4-(difluoromethoxy)benzamide] | 0.01 µM | > 10 µM
